ChEMBL document CHEMBL4024706 (Eur J Med Chem, 2017)

Tests used:
[1] = target: Dual specificity protein kinase TTK (Homo sapiens) (UniProt P33981); assay: Inhibition of wild-type human partial length TTK (N505 to V798 residues) expressed in bacterial expression system assessed as residual activity at 1 uM by Kinomescan method relative to control
[2] = target: Cyclin-dependent kinase-like 3 (Homo sapiens) (UniProt Q8IVW4); assay: Inhibition of wild-type human partial length CDKL3 (M1 to D327 residues) expressed in bacterial expression system assessed as residual activity at 1 uM by Kinomescan method relative to control
[3] = system: Receptor-type tyrosine-protein kinase FLT3 (Homo sapiens), P36888 [D835Y]; assay: Inhibition of human partial length FLT3 D835Y mutant (Q580 to Y969 residues) expressed in bacterial expression system assessed as residual activity at 1 uM by Kinomescan method relative to control
[4] = target: Protein kinase C epsilon type (Homo sapiens) (UniProt Q02156); assay: Inhibition of wild-type human partial length PRKCE (A378 to P737 residues) expressed in mammalian expression system assessed as residual activity at 1 uM by Kinomescan method relative to control
[5] = target: Calcium-dependent protein kinase 1 (Plasmodium falciparum) (UniProt P62344); assay: Inhibition of wild-type Plasmodium falciparum isolate 3D7 full length CDPK1 (M1 to S524 residues) expressed in mammalian expression system assessed as residual activity at 1 uM by Kinomescan method relative to control
[6] = system: Phosphatidylinositol 4,5-bisphosphate 3-kinase catalytic subunit alpha isoform (Homo sapiens), P42336 [H1047L]; assay: Inhibition of human partial length PIK3CA H1047L mutant (R108 to N1068 residues) expressed in mammalian expression system assessed as residual activity at 1 uM by Kinomescan method relative to control
[7] = target: Homeodomain-interacting protein kinase 2 (Homo sapiens) (UniProt Q9H2X6); assay: Inhibition of wild-type human partial length HIPK2 (M153 to S564 residues) expressed in mammalian expression system assessed as residual activity at 1 uM by Kinomescan method relative to control
[8] = target: Serine/threonine-protein kinase PAK 5 (Homo sapiens) (UniProt Q9P286); assay: Inhibition of wild-type human partial length PAK7 (Y400 to H719 residues) expressed in bacterial expression system assessed as residual activity at 1 uM by Kinomescan method relative to control
[9] = target: Serine/threonine-protein kinase PAK 2 (Homo sapiens) (UniProt Q13177); assay: Inhibition of wild-type human partial length PAK2 (P151 to R525 residues) expressed in bacterial expression system assessed as residual activity at 1 uM by Kinomescan method relative to control
[10] = target: Ephrin type-A receptor 6 (Homo sapiens) (UniProt Q9UF33); assay: Inhibition of wild-type human partial length EPHA6 (Y700 to E1046 residues) expressed in bacterial expression system assessed as residual activity at 1 uM by Kinomescan method relative to control
[11] = target: Tyrosine-protein kinase HCK (Homo sapiens) (UniProt P08631); assay: Inhibition of wild-type human full length HCK (M22 to P526 residues) expressed in bacterial expression system assessed as residual activity at 1 uM by Kinomescan method relative to control
[12] = target: Mitogen-activated protein kinase kinase kinase kinase 4 (Homo sapiens) (UniProt O95819); assay: Inhibition of wild-type human partial length MAP4K4 (M1 to R310 residues) expressed in bacterial expression system assessed as residual activity at 1 uM by Kinomescan method relative to control
[13] = system: Leucine-rich repeat serine/threonine-protein kinase 2 (Homo sapiens), Q5S007 [G2019S]; assay: Inhibition of human partial length LRRK2 G2019S mutant (H970 to E2527 residues) expressed in mammalian expression system assessed as residual activity at 1 uM by Kinomescan method relative to control
[14] = target: Activin receptor type-1B (Homo sapiens) (UniProt P36896); assay: Inhibition of wild-type human ACVR1B (S187 to I505 residues) expressed in bacterial expression system assessed as residual activity at 1 uM by Kinomescan method relative to control
[15] = target: Tyrosine-protein kinase Yes (Homo sapiens) (UniProt P07947); assay: Inhibition of wild-type human partial length YES (T257 to L543 residues) expressed in bacterial expression system assessed as residual activity at 1 uM by Kinomescan method relative to control
[16] = target: Myosin-IIIa (Homo sapiens) (UniProt Q8NEV4); assay: Inhibition of wild-type human partial length MYO3A (M1 to K338 residues) expressed in bacterial expression system assessed as residual activity at 1 uM by Kinomescan method relative to control
[17] = system: Mast/stem cell growth factor receptor Kit (Homo sapiens), P10721 [V559D]; assay: Inhibition of human partial length KIT V559D mutant (Y545 to D952 residues) expressed in bacterial expression system assessed as residual activity at 1 uM by Kinomescan method relative to control
[18] = target: Receptor-interacting serine/threonine-protein kinase 4 (Homo sapiens) (UniProt P57078); assay: Inhibition of wild-type human partial length RIPK4 (M1 to V303 residues) expressed in mammalian expression system assessed as residual activity at 1 uM by Kinomescan method relative to control
[19] = target: Serine/threonine-protein kinase BRSK2 (Homo sapiens) (UniProt Q8IWQ3); assay: Inhibition of wild-type human full length BRSK2 (M1 to L674 residues) expressed in bacterial expression system assessed as residual activity at 1 uM by Kinomescan method relative to control
[20] = target: ALK tyrosine kinase receptor (Homo sapiens) (UniProt Q9UM73); assay: Inhibition of wild-type human partial length ALK (I1088 to E1409 residues) expressed in mammalian expression system assessed as residual activity at 1 uM by Kinomescan method relative to control
[21] = AUC (0 to infinity) in Sprague-Dawley rat at 1 mg/kg, iv by LC-MS/MS method; format: ADME, organism-based; set-up: dose 1 mg/kg, route intravenous, time infinity; details: in vivo
[22] = target: Homeodomain-interacting protein kinase 1 (Homo sapiens) (UniProt Q86Z02); assay: Inhibition of wild-type human partial length HIPK1 (M146 to I555 residues) expressed in mammalian expression system assessed as residual activity at 1 uM by Kinomescan method relative to control
[23] = target: Non-receptor tyrosine-protein kinase TYK2 (Homo sapiens) (UniProt P29597); assay: Inhibition of wild-type human partial length TYK2 JH2 pseudokinase domain (G556 to D888 residues) expressed in mammalian expression system assessed as residual activity at 1 uM by Kinomescan method relative to control
[24] = target: Cyclin-dependent kinase 11B (Homo sapiens) (UniProt P21127); assay: Inhibition of wild-type human partial length CDC2L1 (P353 to G692 residues) expressed in bacterial expression system assessed as residual activity at 1 uM by Kinomescan method relative to control
[25] = target: Megakaryocyte-associated tyrosine-protein kinase (Homo sapiens) (UniProt P42679); assay: Inhibition of wild-type human full length CTK (M43 to P508 residues) expressed in mammalian expression system assessed as residual activity at 1 uM by Kinomescan method relative to control

Sequence of Protein kinase C epsilon type (Homo sapiens) (Q02156 whole entry, the tested form may be a part): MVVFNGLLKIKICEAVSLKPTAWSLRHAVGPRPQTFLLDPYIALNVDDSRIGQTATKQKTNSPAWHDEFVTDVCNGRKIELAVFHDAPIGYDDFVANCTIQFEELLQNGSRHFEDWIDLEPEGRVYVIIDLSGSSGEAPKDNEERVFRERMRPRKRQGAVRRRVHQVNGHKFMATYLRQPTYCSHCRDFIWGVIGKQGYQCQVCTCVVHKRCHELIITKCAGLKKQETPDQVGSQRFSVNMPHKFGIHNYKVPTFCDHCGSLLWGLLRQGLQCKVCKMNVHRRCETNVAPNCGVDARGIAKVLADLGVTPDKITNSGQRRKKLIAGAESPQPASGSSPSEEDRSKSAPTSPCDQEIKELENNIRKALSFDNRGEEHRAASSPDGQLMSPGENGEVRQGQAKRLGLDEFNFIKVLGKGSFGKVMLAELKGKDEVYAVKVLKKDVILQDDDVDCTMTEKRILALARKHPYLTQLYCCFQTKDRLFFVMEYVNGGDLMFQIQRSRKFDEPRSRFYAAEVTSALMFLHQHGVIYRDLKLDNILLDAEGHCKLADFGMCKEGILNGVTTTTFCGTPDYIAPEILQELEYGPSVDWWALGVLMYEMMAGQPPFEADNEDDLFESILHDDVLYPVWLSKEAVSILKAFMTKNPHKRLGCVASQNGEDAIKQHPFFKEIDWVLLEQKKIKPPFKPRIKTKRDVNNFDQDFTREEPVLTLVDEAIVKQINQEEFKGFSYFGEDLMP
Sequence of Leucine-rich repeat serine/threonine-protein kinase 2 (Homo sapiens), Q5S007 [G2019S] (Q5S007 whole entry G2019S, the tested form may be a part): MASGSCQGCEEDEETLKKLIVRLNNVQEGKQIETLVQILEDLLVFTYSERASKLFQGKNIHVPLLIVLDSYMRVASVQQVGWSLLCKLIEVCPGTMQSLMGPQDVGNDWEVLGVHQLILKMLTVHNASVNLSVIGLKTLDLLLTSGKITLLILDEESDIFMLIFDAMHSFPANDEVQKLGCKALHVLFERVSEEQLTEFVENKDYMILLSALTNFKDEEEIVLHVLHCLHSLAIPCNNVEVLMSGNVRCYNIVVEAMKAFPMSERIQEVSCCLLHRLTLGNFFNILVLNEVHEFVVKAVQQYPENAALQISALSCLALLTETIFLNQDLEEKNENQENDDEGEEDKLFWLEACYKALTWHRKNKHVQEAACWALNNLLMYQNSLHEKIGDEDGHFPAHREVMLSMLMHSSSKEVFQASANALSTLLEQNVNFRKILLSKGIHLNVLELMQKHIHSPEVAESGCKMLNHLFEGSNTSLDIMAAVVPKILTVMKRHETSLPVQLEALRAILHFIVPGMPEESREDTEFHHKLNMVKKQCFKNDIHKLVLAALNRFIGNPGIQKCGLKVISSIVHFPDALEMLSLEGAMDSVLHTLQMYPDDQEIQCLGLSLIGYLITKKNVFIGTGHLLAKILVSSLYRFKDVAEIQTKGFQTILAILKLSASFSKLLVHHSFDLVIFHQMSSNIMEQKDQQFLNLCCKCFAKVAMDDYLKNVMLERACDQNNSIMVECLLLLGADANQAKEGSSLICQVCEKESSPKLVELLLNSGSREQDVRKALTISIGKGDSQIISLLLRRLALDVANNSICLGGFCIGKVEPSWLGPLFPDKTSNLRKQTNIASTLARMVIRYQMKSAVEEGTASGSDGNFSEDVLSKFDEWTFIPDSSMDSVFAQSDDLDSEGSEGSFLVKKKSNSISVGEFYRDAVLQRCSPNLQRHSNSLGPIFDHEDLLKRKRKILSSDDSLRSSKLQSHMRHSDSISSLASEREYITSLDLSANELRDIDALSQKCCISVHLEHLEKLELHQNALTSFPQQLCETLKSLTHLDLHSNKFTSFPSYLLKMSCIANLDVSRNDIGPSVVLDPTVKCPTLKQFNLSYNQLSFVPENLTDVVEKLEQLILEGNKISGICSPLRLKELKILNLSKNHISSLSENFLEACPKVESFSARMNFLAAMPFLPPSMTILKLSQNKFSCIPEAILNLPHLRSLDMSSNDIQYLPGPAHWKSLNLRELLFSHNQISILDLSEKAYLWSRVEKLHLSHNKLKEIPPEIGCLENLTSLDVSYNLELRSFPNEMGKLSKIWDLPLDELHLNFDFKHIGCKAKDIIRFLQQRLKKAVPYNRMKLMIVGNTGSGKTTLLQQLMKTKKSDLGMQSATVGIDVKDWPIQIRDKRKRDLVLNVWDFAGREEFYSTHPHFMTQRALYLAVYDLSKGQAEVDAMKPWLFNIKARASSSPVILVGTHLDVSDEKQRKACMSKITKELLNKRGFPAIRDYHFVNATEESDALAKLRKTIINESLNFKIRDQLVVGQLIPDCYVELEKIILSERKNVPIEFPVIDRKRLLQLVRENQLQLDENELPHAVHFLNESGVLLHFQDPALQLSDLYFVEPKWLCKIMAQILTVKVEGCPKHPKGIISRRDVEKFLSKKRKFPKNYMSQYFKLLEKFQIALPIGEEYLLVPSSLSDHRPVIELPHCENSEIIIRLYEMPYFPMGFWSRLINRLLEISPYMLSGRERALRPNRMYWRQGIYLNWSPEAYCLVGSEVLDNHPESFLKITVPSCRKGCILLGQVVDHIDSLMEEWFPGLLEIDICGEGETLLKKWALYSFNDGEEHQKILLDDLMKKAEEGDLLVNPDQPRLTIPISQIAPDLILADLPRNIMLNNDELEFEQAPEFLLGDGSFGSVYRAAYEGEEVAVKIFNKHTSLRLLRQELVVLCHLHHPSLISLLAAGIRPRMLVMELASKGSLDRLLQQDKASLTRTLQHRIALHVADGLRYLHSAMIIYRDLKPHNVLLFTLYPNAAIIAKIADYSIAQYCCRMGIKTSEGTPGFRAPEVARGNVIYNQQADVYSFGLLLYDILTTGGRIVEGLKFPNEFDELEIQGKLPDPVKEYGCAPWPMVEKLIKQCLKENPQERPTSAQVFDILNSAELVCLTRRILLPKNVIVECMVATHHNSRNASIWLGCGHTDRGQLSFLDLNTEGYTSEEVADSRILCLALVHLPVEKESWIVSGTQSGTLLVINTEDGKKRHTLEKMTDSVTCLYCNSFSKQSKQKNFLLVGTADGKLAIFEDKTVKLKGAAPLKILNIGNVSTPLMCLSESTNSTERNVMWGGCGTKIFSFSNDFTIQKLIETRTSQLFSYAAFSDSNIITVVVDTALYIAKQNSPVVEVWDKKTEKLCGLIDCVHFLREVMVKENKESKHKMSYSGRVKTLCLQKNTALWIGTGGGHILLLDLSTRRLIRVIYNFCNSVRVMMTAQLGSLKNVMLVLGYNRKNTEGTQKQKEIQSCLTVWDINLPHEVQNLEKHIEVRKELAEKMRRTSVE
Sequence of Tyrosine-protein kinase HCK (Homo sapiens) (P08631 2-526 limits assumed): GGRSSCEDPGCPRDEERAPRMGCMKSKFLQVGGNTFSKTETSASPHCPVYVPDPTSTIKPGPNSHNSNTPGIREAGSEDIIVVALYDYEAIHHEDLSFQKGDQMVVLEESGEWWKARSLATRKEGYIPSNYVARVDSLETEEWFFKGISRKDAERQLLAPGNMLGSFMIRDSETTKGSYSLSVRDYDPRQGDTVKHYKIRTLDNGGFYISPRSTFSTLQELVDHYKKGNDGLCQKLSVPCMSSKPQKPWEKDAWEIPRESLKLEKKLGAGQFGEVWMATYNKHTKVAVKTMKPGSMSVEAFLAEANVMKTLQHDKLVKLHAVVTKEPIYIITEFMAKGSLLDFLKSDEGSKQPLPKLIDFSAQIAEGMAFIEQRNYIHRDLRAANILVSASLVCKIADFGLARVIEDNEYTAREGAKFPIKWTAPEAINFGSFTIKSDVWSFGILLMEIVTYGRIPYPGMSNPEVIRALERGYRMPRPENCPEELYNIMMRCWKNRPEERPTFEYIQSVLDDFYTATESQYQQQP
Sequence of Serine/threonine-protein kinase PAK 5 (Homo sapiens) (Q9P286 whole entry, looked up, the tested form may be a part): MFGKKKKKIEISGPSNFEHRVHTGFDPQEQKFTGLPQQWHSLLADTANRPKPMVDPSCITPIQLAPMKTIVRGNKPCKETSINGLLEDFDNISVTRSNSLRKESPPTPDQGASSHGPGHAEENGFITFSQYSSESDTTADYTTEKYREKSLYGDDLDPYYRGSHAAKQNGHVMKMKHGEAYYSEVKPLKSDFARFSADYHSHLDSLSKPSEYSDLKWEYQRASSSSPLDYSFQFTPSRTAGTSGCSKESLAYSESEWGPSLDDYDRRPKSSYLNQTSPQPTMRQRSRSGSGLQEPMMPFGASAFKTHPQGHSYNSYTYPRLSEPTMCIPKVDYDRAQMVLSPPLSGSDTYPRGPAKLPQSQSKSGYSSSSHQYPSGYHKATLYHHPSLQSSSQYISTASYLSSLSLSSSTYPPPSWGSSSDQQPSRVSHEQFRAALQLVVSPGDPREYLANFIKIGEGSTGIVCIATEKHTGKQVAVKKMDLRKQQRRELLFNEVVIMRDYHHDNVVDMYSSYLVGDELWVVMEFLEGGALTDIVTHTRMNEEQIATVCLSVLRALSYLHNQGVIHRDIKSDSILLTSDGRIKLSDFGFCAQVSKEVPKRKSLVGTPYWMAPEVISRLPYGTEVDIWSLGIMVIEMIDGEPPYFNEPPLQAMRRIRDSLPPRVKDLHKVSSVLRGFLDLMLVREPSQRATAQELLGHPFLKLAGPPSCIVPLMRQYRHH
Sequence of Serine/threonine-protein kinase PAK 2 (Homo sapiens) (Q13177 whole entry, the tested form may be a part): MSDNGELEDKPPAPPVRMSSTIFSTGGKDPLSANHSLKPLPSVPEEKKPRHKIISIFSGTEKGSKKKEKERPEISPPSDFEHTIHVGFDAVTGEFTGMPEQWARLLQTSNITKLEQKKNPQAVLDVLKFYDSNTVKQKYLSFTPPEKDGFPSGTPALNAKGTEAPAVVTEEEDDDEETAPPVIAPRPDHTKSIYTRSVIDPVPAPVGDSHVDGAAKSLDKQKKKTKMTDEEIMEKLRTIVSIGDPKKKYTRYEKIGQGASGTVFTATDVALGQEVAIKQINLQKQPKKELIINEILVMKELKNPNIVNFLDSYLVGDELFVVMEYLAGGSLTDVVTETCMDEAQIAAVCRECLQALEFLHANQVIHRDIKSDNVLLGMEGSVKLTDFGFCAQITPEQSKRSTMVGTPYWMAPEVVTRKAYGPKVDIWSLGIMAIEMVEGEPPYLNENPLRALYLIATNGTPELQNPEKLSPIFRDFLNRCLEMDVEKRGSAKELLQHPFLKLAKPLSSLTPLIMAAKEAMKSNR

C=CC(=O)Nc1cc(Nc2cc(-c3cccc(NC(=O)c4ccc(C(C)(C)C)cc4)c3C)cn(C)c2=O)ccc1C(=O)N1CCOCC1
Activity [1]: 99% | Activity [2]: 91% | Activity [3]: 97% | Activity [4]: 96% | Activity [5]: 85% | Activity [6]: 56% | Activity [7]: 100% | Activity [8]: 98% | Activity [9]: 81% | Activity [10]: 93% | Activity [11]: 100% | Activity [12]: 86% | Activity [13]: 58% | Activity [14]: 100% | Activity [15]: 93% | Activity [16]: 95% | Activity [17]: 93% | Activity [18]: 94% | Activity [19]: 92% | Activity [20]: 94% | AUC(0-inf) [21]: 183 ng·h/mL | Activity [22]: 100% | Activity [23]: 86% | Activity [24]: 96% | Activity [25]: 100%
